# Experimental data: paper PMC11748363, “Antimicrobial and Antiproliferative Properties of 2‐Phenyl‐N‐(Pyridin‐2‐yl)acetamides” (Chemical Biology & Drug Design, 2025)
# Read-outs that look alike come from different tables or passages of the source.
# Legend:
# [1] = system: Candida tropicalis CCM 8264, ATCC 750; test: Antifungal microdilution broth MIC, CT; details: for IC90: ATCC750|CCM8264, 24 h
# [2] = system: Trichophyton interdigitale CCM 8377, ATCC 9533; test: Antifungal microdilution broth MIC, TI; details: Trichophyton interdigitale
# [3] = system: Candida parapsilosis CCM 8260, ATCC 22019; test: Antifungal microdilution broth MIC, CP; details: Lodderomyces parapsilosis
# [4] = system: Candida albicans CCM 8320, ATCC 24433; test: Antifungal microdilution broth MIC, CA; details: for IC90: ATCC24433|CCM8320, 24 h
# [5] = system: Aspergillus fumigatus ATCC 204305; test: Antifungal microdilution broth MIC, AF
# [6] = system: Aspergillus flavus CCM 8363; test: Antifungal microdilution broth MIC, AFla
# [7] = system: Lichtheimia corymbifera CCM 8077; test: Antifungal microdilution broth MIC, LC
# [8] = system: Candida krusei CCM 8271, ATCC 6258; test: Antifungal microdilution broth MIC, CK; details: Pichia kudriavzevii; for IC90: ATCC6258|CCM8271, 24 h
# [9] = system: Mycobacterium tuberculosis H37Ra; test: Antimycobacterial microdilution broth MIC (resazurin), Mtb H37Ra; type: cell-based; details: Mycobacterium tuberculosis, H37RA
# [10] = system: Staphylococcus epidermidis CCM 4418, ATCC 12228; test: Antibacterial microdilution broth MIC, SE; type: cell-based
# [11] = system: Enterococcus faecalis CCM 4224, ATCC 29212; test: Antibacterial microdilution broth MIC, EF; type: cell-based
# [12] = system: Staphylococcus aureus subsp. aureus CCM 4750, ATCC 43300 (MRSA); test: Antibacterial microdilution broth MIC, MRSA; type: cell-based; details: Staphylococcus aureus
# [13] = system: Staphylococcus aureus CCM 4223, ATCC 29213; test: Antibacterial microdilution broth MIC, SA; type: cell-based; details: Staphylococcus aureus
# [14] = system: Mycolicibacterium smegmatis DSM 43465; test: Antimycobacterial microdilution broth MIC (resazurin), M. smegmatis; type: cell-based
# [15] = system: HepG2 cell line; test: Cytotoxicity CellTiter 96, HepG2; type: cell-based, human; details: 24 h incubation, ^c compound precipitated in the testing medium, ^d over the limit of tested concentrations
# [16] = system: Pseudomonas aeruginosa CCM 3955, ATCC 27853; test: Antibacterial microdilution broth MIC, PA; type: cell-based
# [17] = system: Mycolicibacterium aurum DSM 43999; test: Antimycobacterial microdilution broth MIC (resazurin), M. aurum; type: cell-based
# [18] = system: Klebsiella pneumoniae CCM 4415, ATCC 10031; test: Antibacterial microdilution broth MIC, KP
# [19] = system: Escherichia coli CCM 3954, ATCC 25922; test: Antibacterial microdilution broth MIC, EC; type: cell-based
# [20] = system: Acinetobacter baumannii DSM 30007, ATCC 19606; test: Antibacterial microdilution broth MIC, ACI; type: cell-based
# [21] = 24 h, read-out: MIC visual detection, CT
# [22] = ATCC9533|CCM8377, 48 h, read-out: MIC visual detection, TI
# [23] = ATCC22019|CCM8260, 24 h, read-out: MIC visual detection, CP
# [24] = 24 h, read-out: MIC visual detection, CA
# [25] = ATCC204305, 48 h, read-out: MIC visual detection, AF
# [26] = CCM8363, 48 h, read-out: MIC visual detection, AFla
# [27] = CCM8077, 48 h, read-out: MIC visual detection, LC
# [28] = 24 h, read-out: MIC visual detection, CK
# [29] = read-out: MIC Mtb H37Ra (μg/mL)
smiles,measurement,setting,value
"C[C@@H]1[C@H](O)[C@@H](C)/C=C/C=C/C=C/C=C/C=C/C=C/C=C/[C@H](O[C@@H]2O[C@H](C)[C@@H](O)[C@H](N)[C@@H]2O)C[C@@H]2O[C@](O)(C[C@@H](O)C[C@@H](O)[C@H](O)CC[C@@H](O)C[C@@H](O)CC(=O)O[C@H]1C)C[C@H](O)[C@H]2C(=O)O [Amphotericin B, amphotericin B, reference compound]",MIC,[1]; [21],1 µg/mL
same,IC90,"[1]; read-out: Amphotericin B - IC90 spectrophotometric detection, CT",1 µg/mL
same,IC90,"[2]; ATCC9533|CCM8377, 48 h, read-out: Amphotericin B - IC90 spectrophotometric detection, TI",1 µg/mL
same,MIC,[2]; [22],1 µg/mL
same,IC90,"[3]; ATCC22019|CCM8260, 24 h, read-out: Amphotericin B - IC90 spectrophotometric detection, CP",0.5 µg/mL
same,MIC,[3]; [23],0.5 µg/mL
same,MIC,[4]; [24],1 µg/mL
same,IC90,"[4]; read-out: Amphotericin B - IC90 spectrophotometric detection, CA",1 µg/mL
same,IC90,"[5]; ATCC204305, 48 h, read-out: Amphotericin B - IC90 spectrophotometric detection, AF",4 µg/mL
same,MIC,[5]; [25],4 µg/mL
same,IC90,"[6]; CCM8363, 48 h, read-out: Amphotericin B - IC90 spectrophotometric detection, AFla",4 µg/mL
same,MIC,[6]; [26],4 µg/mL
same,IC90,"[7]; CCM8077, 48 h, read-out: Amphotericin B - IC90 spectrophotometric detection, LC",1 µg/mL
same,MIC,[7]; [27],1 µg/mL
same,MIC,[8]; [28],1 µg/mL
same,IC90,"[8]; read-out: Amphotericin B - IC90 spectrophotometric detection, CK",1 µg/mL
"O=C(O)c1cn(C2CC2)c2cc(N3CCNCC3)c(F)cc2c1=O [CIP, ciprofloxacin, reference compound]",MIC,[9]; read-out: MIC Mtb H37Ra (μM),0.38 to 0.75 µM
same,MIC,[9]; [29],0.125 to 0.25 µg/mL
O=C(Cc1ccccc1)Nc1ccccn1 [Compound 1],MIC,"[10]; 24 h, read-out: MIC SE 24h",> 500 µM
same,MIC,"[10]; 48 h, read-out: MIC SE 48h",> 500 µM
same,MIC,[9]; read-out: MIC Mtb H37Ra (μM),147 µM
same,MIC,[9]; [29],31.2 µg/mL
same,MIC,"[11]; 24 h, read-out: MIC EF 24h",> 500 µM
same,MIC,"[11]; 48 h, read-out: MIC EF 48h",> 500 µM
same,MIC,"[12]; 24 h, read-out: MIC MRSA 24h",> 500 µM
same,MIC,"[12]; 48 h, read-out: MIC MRSA 48h",> 500 µM
same,MIC,"[1]; 24 h, read-out: MIC CT 24h",500 µM
same,MIC,"[1]; 48 h, read-out: MIC CT 48h",500 µM
same,MIC,"[13]; 24 h, read-out: MIC SA 24h",> 500 µM
same,MIC,"[13]; 48 h, read-out: MIC SA 48h",> 500 µM
same,MIC,"[14]; DSM43465, read-out: MIC M. smegmatis",62.5 µg/mL
same,MIC,"[2]; 72 h, read-out: MIC TI 72h",500 µM
same,MIC,"[2]; 120 h, read-out: MIC TI 120h",500 µM
same,IC50,[15],> 1000 µM
same,IC50,"[15]; Homo sapiens, HepG2, 24 h",> 500 µM
same,MIC,"[16]; 24 h, read-out: MIC PA 24h",> 500 µM
same,MIC,"[16]; 48 h, read-out: MIC PA 48h",> 500 µM
same,MIC,"[3]; 24 h, read-out: MIC CP 24h",500 µM
same,MIC,"[3]; 48 h, read-out: MIC CP 48h",500 µM
same,MIC,"[17]; DSM43999, read-out: MIC M. aurum",250 µg/mL
same,MIC KP 24h,[18]; 24h,> 500 µM
same,MIC KP 48h,[18]; 48h,> 500 µM
same,MIC,"[4]; 24 h, read-out: MIC CA 24h",500 µM
same,MIC,"[4]; 48 h, read-out: MIC CA 48h",500 µM
same,MIC,"[19]; 24 h, read-out: MIC EC 24h",> 500 µM
same,MIC,"[19]; 48 h, read-out: MIC EC 48h",> 500 µM
same,MIC,"[5]; ATCC204305, 24 h, read-out: MIC AF 24h",> 500 µM
same,MIC,"[5]; ATCC204305, 48 h, read-out: MIC AF 48h",> 500 µM
same,MIC,"[6]; CCM8363, 24 h, read-out: MIC AFla 24h",> 500 µM
same,MIC,"[6]; CCM8363, 48 h, read-out: MIC AFla 48h",> 500 µM
same,MIC,"[7]; CCM8077, 24 h, read-out: MIC LC 24h",> 500 µM
same,MIC,"[7]; CCM8077, 48 h, read-out: MIC LC 48h",> 500 µM
same,MIC,"[20]; 24 h, read-out: MIC ACI 24h",> 500 µM
same,MIC,"[20]; 48 h, read-out: MIC ACI 48h",> 500 µM
same,MIC,"[8]; 24 h, read-out: MIC CK 24h",500 µM
same,MIC,"[8]; 48 h, read-out: MIC CK 48h",500 µM
"CNC(C)C1CCC(N)C(OC2C(N)CC(N)C(OC3OCC(C)(O)C(NC)C3O)C2O)O1 (stereo not drawn) [Gentamicin, gentamicin, reference compound]",MIC,"[10]; internal quality controls, 24h, 95% inhibition of growth, 530 nm, read-out: MIC (µg/mL) SE, spectrophotometric detection",0.0625 µg/mL
same,MIC,"[10]; read-out: MIC (µg/mL) SE, Gentamicin – spectrophotometric detection, internal quality controls, 24h",0.0625 µg/mL
same,MIC,"[11]; internal quality controls, 24h, 95% inhibition of growth, 530 nm, read-out: MIC (µg/mL) EF, spectrophotometric detection",> 8 µg/mL
same,MIC,"[11]; read-out: MIC (µg/mL) EF, Gentamicin – spectrophotometric detection, internal quality controls, 24h",> 8 µg/mL
same,MIC,"[12]; read-out: MIC (µg/mL) MRSA, Gentamicin – spectrophotometric detection, internal quality controls, 24h",> 8 µg/mL
same,MIC,"[12]; internal quality controls, 24h, 95% inhibition of growth, 530 nm, read-out: MIC (µg/mL) MRSA, spectrophotometric detection",> 8 µg/mL
same,MIC,"[13]; read-out: MIC (µg/mL) SA, Gentamicin – spectrophotometric detection, internal quality controls, 24h",0.5 µg/mL
same,MIC,"[13]; internal quality controls, 24h, 95% inhibition of growth, 530 nm, read-out: MIC (µg/mL) SA, spectrophotometric detection",1 µg/mL
same,MIC,"[16]; internal quality controls, 24h, 95% inhibition of growth, 530 nm, read-out: MIC (µg/mL) PA, spectrophotometric detection",0.5 µg/mL
same,MIC,"[16]; read-out: MIC (µg/mL) PA, Gentamicin – spectrophotometric detection, internal quality controls, 24h",0.5 µg/mL
same,MIC,"[19]; internal quality controls, 24h, 95% inhibition of growth, 530 nm, read-out: MIC (µg/mL) EC, spectrophotometric detection",1 µg/mL
same,MIC,"[19]; read-out: MIC (µg/mL) EC, Gentamicin – spectrophotometric detection, internal quality controls, 24h",1 µg/mL
same,MIC,"[20]; internal quality controls, 24h, 95% inhibition of growth, 530 nm, read-out: MIC (µg/mL) ACI, spectrophotometric detection",8 µg/mL
same,MIC,"[20]; read-out: MIC (µg/mL) ACI, Gentamicin – spectrophotometric detection, internal quality controls, 24h",8 µg/mL
"CO[C@H]1/C=C/O[C@@]2(C)Oc3c(C)c(O)c4c(O)c(c(/C=N/N5CCN(C)CC5)c(O)c4c3C2=O)NC(=O)/C(C)=C\C=C\[C@H](C)[C@H](O)[C@@H](C)[C@@H](O)[C@@H](C)[C@H](OC(C)=O)[C@@H]1C [RIF, rifampicin, reference compound]",MIC,[9]; read-out: MIC Mtb H37Ra (μM),0.0037 µM
same,MIC,[9]; [29],0.00313 µg/mL
same,MIC,"[14]; DSM43465, read-out: MIC M. smegmatis (μg/mL)",1.56 to 6.25 µg/mL
same,MIC,"[17]; DSM43999, read-out: MIC M. aurum (μg/mL)",0.39 to 0.78 µg/mL
"C[C@@H](c1ncncc1F)[C@](O)(Cn1cncn1)c1ccc(F)cc1F [Voriconazole, voriconazole, reference compound]",MIC,[1]; [21],> 16 µg/mL
same,IC90,"[1]; read-out: Voriconazole - IC90 spectrophotometric detection, CT",2 µg/mL
same,MIC,[2]; [22],> 16 µg/mL
same,IC90,"[2]; ATCC9533|CCM8377, 48 h, read-out: Voriconazole - IC90 spectrophotometric detection, TI",1 µg/mL
same,MIC,[3]; [23],> 16 µg/mL
same,IC90,"[3]; ATCC22019|CCM8260, 24 h, read-out: Voriconazole - IC90 spectrophotometric detection, CP",0.03 µg/mL
same,MIC,[4]; [24],> 16 µg/mL
same,IC90,"[4]; read-out: Voriconazole - IC90 spectrophotometric detection, CA",0.03 µg/mL
same,MIC,[5]; [25],1 µg/mL
same,IC90,"[5]; ATCC204305, 48 h, read-out: Voriconazole - IC90 spectrophotometric detection, AF",0.25 µg/mL
same,MIC,[6]; [26],> 16 µg/mL
same,IC90,"[6]; CCM8363, 48 h, read-out: Voriconazole - IC90 spectrophotometric detection, AFla",2 µg/mL
same,MIC,[7]; [27],> 16 µg/mL
same,IC90,"[7]; CCM8077, 48 h, read-out: Voriconazole - IC90 spectrophotometric detection, LC",> 16 µg/mL
same,MIC,[8]; [28],> 16 µg/mL
same,IC90,"[8]; read-out: Voriconazole - IC90 spectrophotometric detection, CK",0.25 µg/mL
